This note sets out measurements from patent US7446199B2, “Compositions useful as inhibitors of protein kinases” (Vertex Pharmaceuticals Incorporated, priority 2003, dated 2008).

As a reminder, the Ki is a dissociation constant, usually derived from enzyme kinetics or from competition with a known ligand.

Assay [1] has as its target T1, c-KIT (Homo sapiens, UniProt P10721).
T1 construct: 0.02% BSA and 25 nM c-KIT
As to the kind of experiment: Inhibition of c-KIT, radiometric filter-binding assay. The class given is biochemical. Conditions: 700 μM ATP, 0.5 mg/mL pE4Y, room temperature. The protocol:
Compounds are screened for their ability to inhibit c-KIT activity using a radiometric filter-binding assay. This assay monitors the ^33P incorporation into a substrate poly(Glu, Tyr) 4:1 (pE4Y). Reactions are carried out in a solution containing 100 mM HEPES (pH 7.5), 10 mM MgCl2, 25 mM NaCl, 1 mM DTT, 0.01% BSA and 2.5% DMSO. Final substrate concentrations in the assay were 700 μM ATP and 0.5 mg/mL pE4Y (both from Sigma Chemicals, St Louis, Mo.). The final concentration of compounds is generally between 0.01 and 5 μM. Typically, a 12-point titration is conducted by preparing serial dilutions from 10 mM DMSO stock of test compound. Reactions were carried out at room temperature.
Two assay solutions are prepared. Solution 1 contains 100 mM HEPES (pH 7.5), 10 mM MgCl2, 25 mM NaCl, 1 mg/ml pE4Y and 1.4 mM ATP(containing 0.5 μCi of [γ-^33P]ATP for each reaction). Solution 2 contains 100 mM HEPES (pH 7.5), 10 mM MgCl2, 25 mM NaCl, 2 mM DTT, 0.02% BSA and 25 nM c-KIT. The assay is run on a 96 well plate by mixing 33 μL of Solution1 and 1.65 μL of the test compounds. The reaction is initiated with 33 μL of Solution2. After incubation for 20 minutes at room temperature, the reaction was stopped with 50 μL of 10% TCA containing 0.2 mM of ATP. All of the reaction volume is then transferred to a filter plate and washed with 5% TCA by a Harvester9600 from TOMTEC (Hamden, Conn.). The amount of ^33P incorporation into pE4y is analyzed by a Packard TopCount Microplate Scintillation Counter (Meriden, Conn.). The data is fitted using Prism software to get an IC50 or Ki.

Assay [2] concerns the target GSK-3β, (AA 1-420) (Homo sapiens, UniProt P49841). In words: GSK-3 inhibition assay, coupled enzyme system. In kind it is biochemical. Conditions: 20 μM ATP, 300 μM peptide, 20 nM GSK-3b, 30° C.; read-out: Ki values (GSK3). The protocol:
Compounds of the present invention were screened for their ability to inhibit GSK-3β, (AA 1-420) activity using a standard coupled enzyme system (Fox et al., Protein Sci. 1998, 7, 2249). Reactions were carried out in a solution containing 100 mM HEPES (pH 7.5), 10 mM MgCl2, 25 mM NaCl, 300 μM NADH, 1 mM DTT and 1.5% DMSO. Final substrate concentrations in the assay were 20 μM ATP (Sigma Chemicals, St Louis, Mo.) and 300 μM peptide (American Peptide, Sunnyvale, Calif.). Reactions were carried out at 30° C. and 20 nM GSK-3b. Final concentrations of the components of the coupled enzyme system were 2.5 mM phosphoenolpyruvate, 300 μM NADH, 30 μg/ml pyruvate kinase and 10 μg/ml lactate dehydrogenase.
An assay stock buffer solution was prepared containing all of the reagents listed above with the exception of ATP and the test compound of the present invention. The assay stock buffer solution (175 μl) was incubated in a 96 well plate with 5 μl of the test compound of the present invention at final concentrations spanning 0.002 μM to 30 μM at 30° C. for 10 min. Typically, a 12 point titration was conducted by preparing serial dilutions (from 10 mM compound stocks) with DMSO of the test compounds of the present invention in daughter plates. The reaction was initiated by the addition of 20 μl of ATP (final concentration 20 μM). Rates of reaction were obtained using a Molecular Devices Spectramax plate reader (Sunnyvale, Calif.) over 10 min at 30° C. The Ki values were determined from the rate data as a function of inhibitor concentration.

A value given as a limit tells only on which side of the number the result lay.

GSK-3β, (AA 1-420), sequence (P49841 whole entry, the tested form may be a part): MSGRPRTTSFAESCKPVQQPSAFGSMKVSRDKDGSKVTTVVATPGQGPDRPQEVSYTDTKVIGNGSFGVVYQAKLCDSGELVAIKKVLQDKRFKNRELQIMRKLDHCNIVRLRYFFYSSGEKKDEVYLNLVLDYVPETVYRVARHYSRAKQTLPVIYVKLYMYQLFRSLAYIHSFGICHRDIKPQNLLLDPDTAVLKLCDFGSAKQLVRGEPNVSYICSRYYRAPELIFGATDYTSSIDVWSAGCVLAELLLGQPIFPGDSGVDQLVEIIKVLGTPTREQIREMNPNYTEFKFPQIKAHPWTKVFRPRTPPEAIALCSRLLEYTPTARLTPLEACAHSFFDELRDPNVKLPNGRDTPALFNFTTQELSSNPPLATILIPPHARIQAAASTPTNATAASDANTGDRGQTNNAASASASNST
T1 sequence (P10721 26-976): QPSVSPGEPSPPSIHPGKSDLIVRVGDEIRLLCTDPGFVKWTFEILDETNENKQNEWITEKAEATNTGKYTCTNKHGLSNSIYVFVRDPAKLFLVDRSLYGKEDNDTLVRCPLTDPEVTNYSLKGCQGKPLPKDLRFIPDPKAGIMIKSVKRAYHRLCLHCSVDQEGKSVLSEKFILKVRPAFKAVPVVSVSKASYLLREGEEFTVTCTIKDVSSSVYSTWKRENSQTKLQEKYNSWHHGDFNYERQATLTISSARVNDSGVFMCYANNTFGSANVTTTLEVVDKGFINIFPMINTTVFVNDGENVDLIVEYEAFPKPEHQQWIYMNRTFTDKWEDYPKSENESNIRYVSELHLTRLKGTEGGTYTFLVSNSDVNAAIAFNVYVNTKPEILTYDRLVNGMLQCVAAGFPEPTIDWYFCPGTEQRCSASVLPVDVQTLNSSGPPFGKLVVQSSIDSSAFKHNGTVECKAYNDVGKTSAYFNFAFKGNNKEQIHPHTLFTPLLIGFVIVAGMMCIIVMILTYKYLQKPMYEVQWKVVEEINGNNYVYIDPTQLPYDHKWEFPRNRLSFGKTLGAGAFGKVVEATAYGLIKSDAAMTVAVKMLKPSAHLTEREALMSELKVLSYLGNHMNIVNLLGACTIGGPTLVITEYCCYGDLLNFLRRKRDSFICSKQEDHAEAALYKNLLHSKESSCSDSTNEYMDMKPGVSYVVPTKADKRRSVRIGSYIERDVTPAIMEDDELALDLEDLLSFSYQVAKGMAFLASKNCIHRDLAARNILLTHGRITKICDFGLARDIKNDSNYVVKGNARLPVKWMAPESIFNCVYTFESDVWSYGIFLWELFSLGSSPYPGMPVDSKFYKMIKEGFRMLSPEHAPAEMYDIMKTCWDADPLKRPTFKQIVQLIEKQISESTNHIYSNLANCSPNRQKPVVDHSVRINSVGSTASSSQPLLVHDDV

For `CCN1CCC(c2cnc3[nH]cc(-c4oncc4-c4cccc(F)c4F)c3c2)CC1` [Compound 72, 3-[4-(2,3-Difluoro-phenyl)-isoxazol-5-yl]-5-(1-ethyl-piperidin-4-yl)-1H-pyrrolo[2,3-b]pyridine], the Ki in assay [1] and in assay [2] was < 200 nM throughout.

Consider `CS(=O)(=O)n1ccc2cc(-c3cnc4[nH]cc(-c5oncc5-c5cccc(F)c5F)c4c3)cnc21` [Compound 97, 3′-[4-(2,3-Difluoro-phenyl)-isoxazol-5-yl]-1-methanesulfonyl-1H, 1′H-[5,5′]bi[pyrrolo[2,3-b]pyridinyl]], for which the Ki in assay [2] is < 200 nM.

On to `Fc1cccc(-n2cnnc2-c2c[nH]c3ncc(-c4ccncc4)cc23)c1F` [Compound 114, 3-[4-(2,3-Difluoro-phenyl)-4H-[1,2,4]triazol-3-yl]-5-pyridin-4-yl-1H-pyrrolo[2,3-b]pyridine], for which the Ki in assay [1] and in assay [2] was < 200 nM throughout.

Regarding `Fc1cccc(-n2cnnc2-c2c[nH]c3ncc(-c4ccc(N5CCC[C@H]5CN5CCCC5)nc4)cc23)c1F` [Compound 115, 3-[4-(2,3-Difluoro-phenyl)-4H-[1,2,4]triazol-3-yl]-5-[6-(2-pyrrolidin-1-ylmethyl-pyrrolidin-1-yl)-pyridin-3-yl]-1H-pyrrolo[2,3-b]pyridine], the Ki in assay [1] and in assay [2] was 200 to 1000 nM in each case.

In the case of `CN(C)c1ccc(-c2cnc3[nH]cc(-c4nncn4-c4cccc(F)c4F)c3c2)cc1` [Compound 106, (4-{3-[4-(2,3-Difluoro-phenyl)-4H-[1,2,4]triazol-3-yl]-1H-pyrrolo[2,3-b]pyridin-5-yl}-phenyl)-dimethyl-amine], the Ki in assay [1] and in assay [2] was < 200 nM in each case.

Consider `Fc1cccc(-n2cnnc2-c2c[nH]c3ncc(-c4ccc(N5CCCC5)nc4)cc23)c1F` [Compound 118, 3-[4-(2,3-Difluoro-phenyl)-4H-[1,2,4]triazol-3-yl]-5-(6-pyrrolidin-1-yl-pyridin-3-yl)-1H-pyrrolo[2,3-b]pyridine], for which the inhibition constant (Ki) in assay [1] and in assay [2] was 200 to 1000 nM each time.

In the case of `CN(C)c1ccc(-c2cnc3[nH]cc(-c4oncc4-c4cccc(F)c4F)c3c2)cc1` [Compound 88, (4-{3-[4-(2,3-Difluoro-phenyl)-isoxazol-5-yl]-1H-pyrrolo[2,3-b]pyridin-5-yl}-phenyl)-dimethyl-amine], the Ki in assay [1] is < 200 nM; in assay [2], 200 to 1000 nM.

In the case of `Fc1cccc(-c2cnoc2-c2c[nH]c3ncc(-c4cnc5[nH]ccc5c4)cc23)c1F` [Compound 77, 3-[4-(2,3-Difluoro-phenyl)-isoxazol-5-yl]-1H,1′H-[5,5′]bi[pyrrolo[2,3-b]pyridinyl]], the Ki is < 200 nM in assay [1] and 200 to 1000 nM in assay [2].

Regarding `CN(C)C(=O)c1ccc(-c2cnc3[nH]cc(-c4oncc4-c4cccc(F)c4F)c3c2)nc1` [Compound 79, 6-{3-[4-(2,3-Difluoro-phenyl)-isoxazol-5-yl]-1H-pyrrolo [2,3-b]pyridin-5-yl}-N,N-dimethyl-nicotinamide], the Ki in assay [2] was 200 to 1000 nM.

Take `Fc1cccc(-c2cnoc2-c2c[nH]c3ncc(-c4cncnc4)cc23)c1F` [Compound 85, 3-[4-(2,3-Difluoro-phenyl)-isoxazol-5-yl]-5-pyrimidin-5-yl-1H-pyrrolo[2,3-b]pyridine]: the values for the Ki in assay [1] and in assay [2] were < 200 nM and 1000 to 12500 nM, respectively.

Take `COC(=O)c1cnc2[nH]cc(-c3oncc3-c3cccc(F)c3F)c2c1` [Compound 105, 3-[4-(2,3-Difluoro-phenyl)-isoxazol-5-yl]-1H-pyrrolo[2,3-b]pyridine-5-carboxylic acid methyl ester]: the Ki in assay [1] was < 200 nM; in assay [2], 200 to 1000 nM.

Consider `Fc1cccc(-c2cnoc2-c2c[nH]c3ncc(-c4ccccn4)cc23)c1F` [Compound 73, 3-(4-(2,3-Difluoro-phenyl)-isoxazol-5-yl)-5-pyridin-2-yl-1H-pyrrolo[2,3-b]pyridine], for which, in assay [1], the Ki is < 200 nM.

On to `Fc1cccc(-n2cnnc2-c2c[nH]c3ncc(-c4cccnc4)cc23)c1F` [Compound 113, 3-[4-(2,3-Difluoro-phenyl)-4H-[1,2,4]triazol-3-yl]-5-pyridin-3-yl-1H-pyrrolo[2,3-b]pyridine], for which the values for the Ki in assay [1] and in assay [2] were 200 to 1000 nM and < 200 nM, respectively.

As to `CN(C)C1CC=C(c2cnc3[nH]cc(-c4oncc4-c4cccc(F)c4F)c3c2)CC1` (centres unmarked) [Compound 138, (4-{3-[4-(2,3-Difluoro-phenyl)-isoxazol-5-yl]-1H-pyrrolo[2,3-b]pyridin-5-yl}-cyclohex-3-enyl)-dimethyl-amine], the Ki in assay [1] and in assay [2] was < 200 nM in each case.

On to `CN(C)Cc1cc(Cl)nc(-c2cnc3[nH]cc(-c4oncc4-c4cccc(F)c4F)c3c2)c1` [Compound 81, (2-Chloro-6-{3-[4-(2,3-difluoro-phenyl)-isoxazol-5-yl]-1H-pyrrolo[2,3-b]pyridin-5-yl}-pyridin-4-ylmethyl)-dimethyl-amine], for which the Ki in assay [2] lay within 200 to 1000 nM.

For `CN(C)c1ccnc(-c2cnc3[nH]cc(-c4oncc4-c4cccc(F)c4F)c3c2)c1` [Compound 80, (2-{3-[4-(2,3-Difluoro-phenyl)-isoxazol-5-yl]-1H-pyrrolo[2,3-b]pyridin-5-yl}-pyridin-4-yl)-dimethyl-amine], in assay [2], the Ki lay in the range of 1000 to 12500 nM.

On to `Cn1ccc2c(-c3oncc3-c3cccc(F)c3F)c[nH]c2c1=O` [Compound 144, 3-[4-(2,3-Difluoro-phenyl)-isoxazol-5-yl]-6-methyl-1,6-dihydro-pyrrolo[2,3-c]pyridin-7-one], for which, in assay [1], the Ki lay within 200 to 1000 nM.

As to `Fc1cccc(Cc2cnoc2-c2c[nH]c3ncccc23)c1F` [Compound 36, 3-[4-(2,3-Difluoro-benzyl)-isoxazol-5-yl]-1H-pyrrolo[2,3-b]pyridine], the Ki in assay [2] was in the range of 200 to 1000 nM.

`Fc1cccc(-c2cnoc2-c2c[nH]c3ncc(/C=C/n4cncn4)cc23)c1F` [Compound 133, 3-[4-(2,3-Difluoro-phenyl)-isoxazol-5-yl]-5-(2-[1,2,4]triazol-1-yl-vinyl)-1H-pyrrolo[2,3-b]pyridine]: the Ki in assay [2] is < 200 nM.

Regarding `N#CCC(=O)N1CCC(c2cnc3[nH]cc(-c4oncc4-c4cccc(F)c4F)c3c2)CC1` [Compound 64, 3-(4-{3-[4-(2,3-Difluoro-phenyl)-isoxazol-5-yl]-1H-pyrrolo[2,3-b]pyridin-5-yl}-piperidin-1-yl)-3-oxo-propionitrile], the Ki in assay [2] was < 200 nM.

On to `CN1CCN(C(=O)[C@H]2C[C@H]2c2cnc3[nH]cc(-c4oncc4-c4cccc(F)c4F)c3c2)CC1` (relative stereo) [Compound 143, cis-(2-{3-[4-(2,3-Difluoro-phenyl)-isoxazol-5-yl]-1H-pyrrolo[2,3-b]pyridin-5-yl}-cyclopropyl)-(4-methyl-piperazin-1-yl)-methanone], for which, in assay [2], the Ki lay in the range of 1000 to 12500 nM.

As for `C=Cc1cnc2[nH]cc(-c3oncc3-c3cccc(F)c3F)c2c1` [Compound 66, 3-[4-(2,3-Difluoro-phenyl)-isoxazol-5-yl]-5-vinyl-1H-pyrrolo[2,3-b]pyridine], the Ki in assay [2] fell in the range of 200 to 1000 nM.

As for `CC(=O)N1CCC(c2cnc3[nH]cc(-c4oncc4-c4cccc(F)c4F)c3c2)CC1` [Compound 63, 1-(4-{3-[4-(2,3-Difluoro-phenyl)-isoxazol-5-yl]-1H-pyrrolo[2,3-b]pyridin-5-yl}-piperidin-1-yl)-ethanone], in assay [2], the Ki is < 200 nM.

For `CNc1ccc2c(-c3oncc3-c3cccc(F)c3F)c[nH]c2n1` [Compound 102, {3-[4-(2,3-Difluoro-phenyl)-isoxazol-5-yl]-1H-pyrrolo[2,3-b]pyridin-6-yl}-methyl-amine], the Ki in assay [2] was in the range of 1000 to 12500 nM.
